We go through 17 molecules from patent publication US20110263642A1, “METHODS FOR TREATMENT OF MULTIPLE SCLEROSIS” (FibroGen, Inc., priority 2008, published 2011).

Experiment [1] relates to Oligodendrocytes (MO3.13 cells). Kind of experiment: Ceramide-induced cell death of oligodendrocytes, Calcein AM viability. It is filed as cell-based. The settings on record: compound 20 μM, non-ceramide control = 100. The text has this:
(See e.g., Craighead et al. (2000) Neurosci Lett. 278:125-8; Jana et al. (2007) J Neuroimmune Pharmacol. 2:184-93; Jana et al. (2009) J Neurol Sci. 278:5-15; Singh et al. (1998) J Biol. Chem. 273:20354-62.) In this model, addition of ceramide to cultured oligodendrocytes results in oxidative stress-induced cell death (i.e. apoptosis). The effect of compounds and methods of the present invention on the ability to improve oligodendrocyte viability following ceramide challenge was examined as follows. Oligodendrocytes (MO3.13 cells; Cedarlane Laboratories, Burlington, N.C.) were plated in 96-well culture dishes at a density of 4000 cells per well and cultured at 37° C., 10% CO2 in DMEM containing L-glutamine, sodium pyruvate, and 25 mM glucose (Mediatech Inc., Manassas, Va.) and supplemented with 10% FBS (Invitrogen Corporation, Carlsbad, Calif.). The next day, the plating media was removed and replaced with DMEM containing L-glutamine (Invitrogen Corporation, Carlsbad, Calif.) and supplemented with 5.5 mM glucose. Cells were then treated with vehicle (0.015% DMSO) or ceramide (Sigma-Aldrich, St. Louis, Mo.) plus vehicle (0.05% DMSO) or a compound of the invention (20 μM).
For cells treated longer than 3 days, half the media was removed after the third day of treatment and replaced with an equal volume of fresh treatment media containing vehicle (0.015% DMSO) or ceramide plus vehicle (0.05% DMSO) or a compound of the invention.
Cell viability was assessed 3, 4, and 5 days after treatment using the following protocol. Treatment media was removed from the cells and 100 ul of 1.67 uM Calcein AM reagent (Invitrogen Corporation, Carlsbad, Calif.) prepared in DMEM containing L-glutamine (Invitrogen Corporation, Carlsbad, Calif.) and supplemented with 5.5 mM glucose was added to each well. Cells were returned to 37° C. in a 10% CO2 incubator for approximately 30 minutes before assessing fluorescence (Ex 485 nm/Em 538 nm) using a microplate reader (Molecular Devices, Sunnyvale, Calif.). Images were taken of representative wells using a fluorescent microscope equipped with a camera (Nikon, Melville, N.Y.) and imaging software (Nikon, Melville, N.Y.).

The test system of experiment [2] is EAE animal model of chronic progressive multiple sclerosis. Kind of experiment: Chronic progressive EAE induced by MOG35-55 and pertussis toxin in mice, neurological scoring to day 35. Format: in vivo, C57BL/6 mice. The text has this:
A chronic progressive model of EAE is an accepted animal model of human chronic progressive multiple sclerosis (MS). In this model, induction of chronic progressive EAE occurs following injections of myelin oligodendrocyte glycoprotein (MOG). Approximately 8 to 14 days after injection of MOG, animals develop chronic progressive paralysis similar to that observed in humans with chronic progressive MS.
Female C57BL/6 mice (8-10 weeks old) were used in this study (Taconic Farm, CA). Compounds of the present invention were formulated in 0.5% carboxymethyl cellulose (CMC) with 0.1% Polysorbate 80 to achieve a final concentration of either 1.2 mg/ml or 4.0 mg/ml. FTY-720 was also formulated in 0.5% carboxymethyl cellulose (CMC) with 0.1% Polysorbate 80 to achieve a final concentration of 2.0 mg/ml.
Induction of chronic progressive EAE by injection with myelin oligodendrocyte glycoprotein (MOG) was performed as follows. Mice were injected subcutaneously with 200 μg of myelin oligodendrocyte glycoprotein (MOG35-55) peptide emulsion in both sides of their pectoral regions (50 μl each side). At 8 hours and 48 hr after immunization with MOG, animals were injected intraperitoneally with 400 ng of pertussis toxin (PT) in 100 μl of saline. Control mice received both injections with an equivalent volume of saline without MOG or PT.
[…] FTY-720 (10 mg/kg) was used in this study as a positive control and was administered daily from day 0 to day 35.
Neurological scoring was performed daily from day 7 to day 35 following MOG injection. Grading of disease severity (i.e., disease score) was based on the following observations performed by two different observers: 0=no abnormality; 1=distal weakness of the tail (limp tail); 2=limp tail and weakness of hind legs (mild paraparesis); 3=limp tail and complete paralysis of hind legs or paralysis in one of one front leg and one hind leg (moderate paraparesis); 4=limp tail, complete hind leg and partial front leg paralysis (moderate quadraparesis); 5=complete hind and front leg paralysis (moribund). Analysis of variance (ANOVA) was performed on data from the measured (neurological score) parameters. p value≦0.05 were considered significant.

[3] abbreviates: 72 h, ceramide 2.75 μM, read-out: % Viable at Day 3.
Setting [4] is: 96 h, ceramide 2.75 μM, read-out: % Viable at Day 4.
Where [5] appears, read: 120 h, ceramide 2.75 μM, read-out: % Viable at Day 5.
[6] abbreviates: 72 h, ceramide 2.25 μM, read-out: % Viable at Day 3.
The mark [7] stands for this setting: 96 h, ceramide 2.25 μM, read-out: % Viable at Day 4.
[8] abbreviates: 120 h, ceramide 2.25 μM, read-out: % Viable at Day 5.

Read-outs that look alike come from different tables or passages of the source.

Consider `C[C@H](NC(=O)c1c(O)c2cc(Cl)cn2n(Cc2ccc(C(F)(F)F)cc2)c1=O)C(=O)O` [Compound H, (S)-2-{[6-Chloro-4-hydroxy-2-oxo-1-(4-trifluoromethyl-benzyl)-1,2-dihydro-pyrrolo[1,2-b]pyridazine-3-carbonyl]-amino}-propionic acid], for which the viability at 20 µM is 73% in experiment [1] (setting [3]), 74% in experiment [1] (setting [4]) and 77% in experiment [1] (setting [5]).

For `COc1ccc(-c2ccc3c(O)c(C(=O)NCC(=O)O)c(=O)sc3c2)cc1` [Compound L, {[4-Hydroxy-7-(4-methoxy-phenyl)-2-oxo-2H-thiochromene-3-carbonyl]-amino}-acetic acid], the results for the viability at 20 µM in experiment [1] (setting [3]), in experiment [1] (setting [4]) and in experiment [1] (setting [5]) were 75%, 59% and 64%, respectively.

Regarding `N#Cc1nc(C(=O)NCC(=O)O)c(O)c2ccn(Cc3ccccc3F)c12` [Compound O, {[7-Cyano-1-(2-fluoro-benzyl)-4-hydroxy-1H-pyrrolo[2,3-c]pyridine-5-carbonyl]-amino}-acetic acid], the viability at 20 µM in experiment [1] (setting [3]) is 74%; in experiment [1] (setting [4]), 53%; in experiment [1] (setting [5]) it was 52%.

For `O=C(O)CNC(=O)c1ncc2cc(Oc3ccccc3)ccc2c1O` [Compound F, [(4-Hydroxy-7-phenoxy-isoquinoline-3-carbonyl)-amino]-acetic acid], the viability at 20 µM in experiment [1] (setting [6]) was 85%; in experiment [1] (setting [3]), 72%; in experiment [1] (setting [7]), 66%; in experiment [1] (setting [4]), 53%; in experiment [1] (setting [8]), 62%; in experiment [1] (setting [5]), 51%.

In the case of `O=C(O)CNC(=O)c1c(O)c2ccc(-c3ccc(Oc4ccccc4)cc3)cc2oc1=O` [Compound J, {[4-Hydroxy-2-oxo-7-(4-phenoxy-phenyl)-2H-chromene-3-carbonyl]-amino}-acetic acid], the figures for the viability at 20 µM in experiment [1] (setting [3]), in experiment [1] (setting [4]) and in experiment [1] (setting [5]) were 70%, 36% and 22%, respectively.

`COc1ccc(Cn2c(Cl)c(Cl)c3c(O)c(C(=O)NCC(=O)O)nc(C#N)c32)cc1` [Compound Q, {[2,3-Dichloro-7-cyano-4-hydroxy-1-(4-methoxy-benzyl)-1H-pyrrolo[2,3-c]pyridine-5-carbonyl]-amino}-acetic acid]: the viability at 20 µM was 70% in experiment [1] (setting [3]), 59% in experiment [1] (setting [4]) and 50% in experiment [1] (setting [5]).

With `COc1cccc(Oc2cccc3c(O)c(C(=O)NCC(=O)O)ncc23)c1` [Compound E, {[4-Hydroxy-8-(3-methoxy-phenoxy)-isoquinoline-3-carbonyl]-amino}-acetic acid], the results for the viability at 20 µM in experiment [1] (setting [3]), in experiment [1] (setting [4]) and in experiment [1] (setting [5]) were 84%, 74% and 71%, respectively.

For the molecule `COc1cc(F)cc(Oc2ccc3c(O)c(C(=O)NCC(=O)O)ncc3c2)c1` [Compound D, {[7-(3-Fluoro-5-methoxy-phenoxy)-4-hydroxy-isoquinoline-3-carbonyl]-amino}-acetic acid], the viability at 20 µM is 79% in experiment [1] (setting [3]), 74% in experiment [1] (setting [4]) and 61% in experiment [1] (setting [5]).

Take `O=C(O)CNC(=O)c1c(O)c2cc(Cl)cn2n(Cc2ccc(Cl)cc2)c1=O` [Compound I, {[6-Chloro-1-(4-chloro-benzyl)-4-hydroxy-2-oxo-1,2-dihydro-pyrrolo[1,2-b]pyridazine-3-carbonyl]-amino}-acetic acid]: the viability at 20 µM was 76% in experiment [1] (setting [3]), 66% in experiment [1] (setting [4]) and 64% in experiment [1] (setting [5]).

As to `CCCCCCOc1ccc2oc(=O)c(C(=O)NCC(=O)O)c(O)c2c1` [Compound K, [(6-Hexyloxy-4-hydroxy-2-oxo-2H-chromene-3-carbonyl)-amino]-acetic acid], the viability at 20 µM is 72% in experiment [1] (setting [3]), 43% in experiment [1] (setting [4]) and 56% in experiment [1] (setting [5]).

As for `CCCCOc1ccc2c(O)c(C(=O)NCC(=O)O)c(=O)sc2c1` [Compound M, [(7-Butoxy-4-hydroxy-2-oxo-2H-thiochromene-3-carbonyl)-amino]-acetic acid], the viability at 20 µM was 74% in experiment [1] (setting [3]), 57% in experiment [1] (setting [4]) and 59% in experiment [1] (setting [5]).

`Cc1ccc(Oc2cccc3c(C#N)nc(C(=O)NCC(=O)O)c(O)c23)cc1` [Compound B, [(1-Cyano-4-hydroxy-5-p-tolyloxy-isoquinoline-3-carbonyl)-amino]-acetic acid]: the viability at 20 µM in experiment [1] (setting [6]) is 76%; in experiment [1] (setting [7]) it was 54%; in experiment [1] (setting [8]) it was 16%.

As to `N#Cc1nc(C(=O)NCC(=O)O)c(O)c2ccn(Cc3ccc(-c4ccccc4)cc3)c12` [Compound P, [(1-Biphenyl-4-ylmethyl-7-cyano-4-hydroxy-1H-pyrrolo[2,3-c]pyridine-5-carbonyl)-amino]-acetic acid], the viability at 20 µM was 79% in experiment [1] (setting [6]), 80% in experiment [1] (setting [7]) and 77% in experiment [1] (setting [8]).

With `O=C(O)CNC(=O)c1c(O)c2cccn2n(Cc2ccc(C(F)(F)F)cc2)c1=O` [Compound G, {[4-Hydroxy-2-oxo-1-(4-trifluoromethyl-benzyl)-1,2-dihydro-pyrrolo[1,2-b]pyridazine-3-carbonyl]-amino}-acetic acid], the viability at 20 µM in experiment [1] (setting [6]) is 94%; in experiment [1] (setting [7]), 86%; in experiment [1] (setting [8]), 80%.

Consider `CCCCCCCCc1ccc(CCC(N)(CO)CO)cc1` [FTY-720, reference compound], for which, in experiment [2] (10 mg/kg daily, day 0 to day 35), the “development of EAE disease (positive control)” value is “prevented the development of EAE disease”. Further, the “No. of Animals Showing No Disease Activity” value in experiment [2] (through day 35, FTY-720 (Table 3: 10 mg/kg/d, daily)) is 7/7.

`CC1(C)C(=O)C(C(=O)NCC(=O)O)=C(O)c2cc(Cl)ccc21` [Compound N, [(7-Chloro-1-hydroxy-4,4-dimethyl-3-oxo-3,4-dihydro-naphthalene-2-carbonyl)-amino]-acetic acid]: the viability at 20 µM is 82% in experiment [1] (setting [3]), 67% in experiment [1] (setting [4]) and 67% in experiment [1] (setting [5]).

Consider `Cc1ccc(Oc2cccc3c(O)c(C(=O)NCC(=O)O)nc(-c4cccnc4)c23)cc1` [Compound C, [(4-Hydroxy-1-pyridin-3-yl-8-p-tolyloxy-isoquinoline-3-carbonyl)-amino]-acetic acid], for which the values for the viability at 20 µM in experiment [1] (setting [6]), in experiment [1] (setting [7]) and in experiment [1] (setting [8]) were 61%, 51% and 16%, respectively.
